In patent EP3298025B1, “NEW AMINO ACID SEQUENCES WITH MI[…] DERIVED FROM NAJA ATRA CARDIOTOXIN 1 (CTX-1)” (Università degli Studi di Parma, priority 2015, dated 2016):
Several values for one entry are separate records, joined by “and”; a condition that tells them apart may be missing. Equal values may be shown once. Residues, ends and D or L forms follow the SMILES beside them.

What was measured:
Assay type in all cases: cell-based
[1] = tested on: E. coli ATCC 25922; assay: antimicrobial activity in presence of NaCl
Protocol: Peptides were tested in the ability to inhibit bacterial growth in liquid medium. 50 µl of peptides at a concentration between 0.2 µM and 50 µM were […] E. coli ATCC 25922, Pseudomonas aeruginosa ATCC 27853 and Staphylococcus aureus methicillin resistant ATCC 43300. After 2 hours incubation at 37°C, bacteria were plated on solid culture medium. Bacterial cultures were cultivated without peptides as growth control.
The bacterial suspension and peptides at differing concentrations were put in contact for about 2 hours at 37°C. After this incubation, 20 µl from every well of the plate were transplanted on solid culture medium, McConkey agar for Gram-negative and Columbia agar with 5% of bovine erythrocytes for Gram-positive bacteria. The inoculum was evenly distributed on the agar medium using a single use sterile handle. After an incubation time of 24 hours at 37°C, the bacterial colonies (cfu) were counted.

[2] = tested on: tested fungal strains; assay: micro-dilution and transplant on solid medium, summary over yeast panel; settings: over Candida albicans ATCC 10231, Candida glabrata ATCC 2001 and Malassetia pachydermatis ATCC 14522
Protocol: (§1) Candida albicans ATCC 10231, Candida glabrata ATCC 2001 and Malassetia pachydermatis ATCC 14522 were cultivated in Czapek-Dox broth (DIFCO) medium for 48-72 hours. On the day of the test the fungal culture was centrifuged at 1700G for 15 minutes and the pellet resuspended in phosphate buffer, then put in agitation on an electric vortex to disrupt fungal cell aggregations. The suspension was diluted to get a final optical density of 0,5 of the McFarland scale (about 1-5x10^6 cell/ml) (Branda J.A., Krantz A. Effect of yeast on automated cell counting. Am J Clin Pathol., 2006:126, 248-254.).
(§2) Peptides ability to inhibit the fungal growth in liquid cultures was tested. 50 µl of each peptides solutions of about 0.2-50 µM were added in microtiter plates with 96 wells with U-shaped bottom, with liquid culture medium and one of these fungi: Candida albicans ATCC 10231, Candida glabrata ATCC 2001 and Malassetia pachydermatis ATCC 14522. After 2 hours of incubation at 37°C, fungal suspensions were plated on solid culture medium, agar Sabouraud. Fungal cultures were cultivated without peptides as growth control.
the fungal suspension and peptides at differing concentrations were in contact for about 2 hours at 37°C. […] After an incubation time of 24 hours at 37°C, the fungal colonies (cfu) were counted.

[3] = tested on: Malassetia pachydermatis ATCC 14522; assay: micro-dilution in liquid medium and transplant on solid medium, yeasts; settings: 2 hours at 37°C, transplant on agar Sabouraud
Protocol: as §1, §2
(§3) the fungal suspension and peptides at differing concentrations were in contact for about 2 hours at 37°C. After this incubation, 20 µl from every well of the plate were transplanted on solid culture medium, agar Sabouraud. The inoculum was evenly distributed on the agar with the aid of a sterile disposable handle. After an incubation time of 24 hours at 37°C, the fungal colonies (cfu) were counted.

[4] = tested on: Candida glabrata ATCC 2001; assay: as above; settings: 2 hours at 37°C, transplant on agar Sabouraud
Protocol: as §1, §2, §3

[5] = tested on: Candida albicans ATCC 10231; assay: as above; settings: 2 hours at 37°C, transplant on agar Sabouraud
Protocol: as §1, §2, §3

[6] = tested on: Enterobacter cloacae (herpetological); assay: micro-dilution in liquid medium and transplant on agar, Gram-negative bacteria; settings: 2 hours at 37°C, transplant on agar
Protocol: (§4) For each bacterial strain 3-5 morphologically similar colonies from fresh cultures were taken and inoculated in Brain Heart Infusion broth, then incubated at 37°C in agitation at 225 r.p.m. for about 3-4 hours. Then the bacterial suspension was centrifuged at 1000 G for 20 minutes and the pellet resuspended in phosphate buffer pH 7, 10 mM. The turbidity of the bacterial suspension was measured using a spectrophotometer with absorbance of 600 nm; the range 0.08-0.13 equates to about 10^8 cfu/ml. The bacterial suspension was diluted 1:100 in phosphate buffer 10mM to obtain a bacterial concentration of about 10^6 cfu/ml. Within 30 minutes 50 µl of the suspension (10^6 cfu/ml) were inoculated in each well of the microtiter plate, to obtain a bacterial concentration of about 5x10^5 cfu/ml.
(§5) The peptides ability to inhibit the bacterial growth in liquid cultures was tested. 50 µl of each peptides solutions of about 0,2-50 µM were added in microtiter plates with 96 wells with U-shaped bottom, containing the liquid culture medium and one of these bacterial strains: E coli ATCC 25922, Pseudomonas. Aeruginosa ATCC 27853, Proteus mirabilis ATCC 14153, Burkholderia cepacia ATCC 17759, Moraxella catharralis ATCC 25238 or other wild strains of Klebsiella pneumoniae subsp. pneumoniae, Enterobacter cloacae, Acinetobacter baumanii.
(§6) After 2 hours incubation at 37°C, the bacteria were transplanted on solid medium. As a growth reference, bacterial cultures were grown in absence of peptides.
(§7) The bacterial suspension and peptides were put in contact for 2 hours at 37°C, with differing concentrations of the peptide. Then 20 µl from each well of the plate were taken and transferred on solid culture medium, McConkey agar. The inoculum was uniformly distributed on the agar medium with aid of a sterile disposable handle. After an incubation time of 24 hours at 37°C, the bacterial colonies (cfu) were counted.

[7] = tested on: Moraxella catharralis ATCC 25238; assay: as above; settings: 2 hours at 37°C, transplant on agar
Protocol: as §4, §5, §6, §7

[8] = tested on: Acinetobacter baumanii from skin (herpetological); assay: as above; settings: 2 hours at 37°C, transplant on agar
Protocol: as §4, §5, §6, §7

[9] = tested on: Klebsiella pneumoniae subsp. pneumoniae (herpetological); assay: as above; settings: 2 hours at 37°C, transplant on agar
Protocol: as §4, §5, §6, §7

[10] = tested on: Burkholderia cepacia ATCC 17759; assay: as above; settings: 2 hours at 37°C, transplant on agar
Protocol: as §4, §5, §6, §7

[11] = tested on: Pseudomonas aeruginosa ATCC 27853; assay: as above; settings: 2 hours at 37°C, transplant on agar
Protocol: as §4, §5, §6, §7

[12] = tested on: Acinetobacter baumanii from cloaca (ornithological); assay: as above; settings: 2 hours at 37°C, transplant on agar
Protocol: as §4, §5, §6, §7

[13] = tested on: Proteus mirabilis ATCC 14153; assay: as above; settings: 2 hours at 37°C, transplant on agar
Protocol: as §4, §5, §6, §7

[14] = tested on: Acinetobacter baumanii from cloaca (herpetological); assay: as above; settings: 2 hours at 37°C, transplant on agar
Protocol: as §4, §5, §6, §7

[15] = tested on: Acinetobacter baumanii (human strain); assay: as above; settings: 2 hours at 37°C, transplant on agar
Protocol: as §4, §5, §6, §7

[16] = tested on: E. coli ATCC 25922; assay: as above; settings: 2 hours at 37°C, transplant on agar
Protocol: as §4, §5, §6, §7

With CC[C@H](C)[C@H](NC(=O)[C@H](CCCCN)NC(=O)[C@H](Cc1ccc(O)cc1)NC(=O)[C@H](CS)NC(=O)[C@H](CC(C)C)NC(=O)[C@H](CC(N)=O)NC(=O)[C@H](CCCCN)NC(=O)CNC(=O)[C@H](C)NC(=O)[C@@H]1CCCN1C(=O)[C@H](CS)NC(=O)[C@@H](NC(=O)[C@H](CCCCN)NC(=O)[C@H](CO)NC(=O)[C@H](C)NC(=O)[C@@H](NC(=O)[C@@H]1CCCN1C(=O)[C@@H](NC(=O)[C@H](CC(C)C)NC(=O)[C@@H](N)CCCCN)[C@@H](C)CC)[C@@H](C)CC)[C@@H](C)O)C(=O)O [NCP-0, K LIPIA SKT CPA GKN LCY KI] (H-KLIPIASKTCPAGKNLCYKI-OH; N-terminus and C-terminus assumed) the “Antimicrobial activity (% to control)” value ([1]; 10 mM NaCl, peptide 12.5 µg/ml) was 0%, the “Antimicrobial activity (% to control)” value ([1]; 10 mM NaCl, peptide 100 µg/ml) was 3% and the “Antimicrobial activity (% to control)” value ([1]; 125 mM NaCl, peptide 12.5 µg/ml) was 0%. For the same molecule, the “Antimicrobial activity (% to control)” value ([1]; 125 mM NaCl, peptide 100 µg/ml) was 0%, the “Antimicrobial activity (% to control)” value ([1]; 250 mM NaCl, peptide 12.5 µg/ml) was 0% and the “Antimicrobial activity (% to control)” value ([1]; 250 mM NaCl, peptide 100 µg/ml) was 0%. The LD99 [2] was > 150 µg/ml and > 69.2 µM, the LD90 [3] was 150.82 µg/ml and 69.8 µM and the LD99 [3] was 151.87 µg/ml and 70.3 µM. The LD90 [4] was > 100 µg/ml and > 46.3 µM, the LD99 [4] was > 200 µg/ml and > 92.6 µM and the LD90 [5] was > 100 µg/ml and > 46.3 µM. For the same molecule, the LD99 [5] was > 200 µg/ml and > 92.6 µM, the LD90 [6] was > 100 µg/ml and > 46.3 µM and the LD99 [6] was > 200 µg/ml and > 92.6 µM. For the same molecule, the LD90 [7] was 0.8 µg/ml and 0.4 µM, the LD99 [7] was 1.6 µg/ml and 0.7 µM and the LD99 [8] was 117.96 µg/ml and 54.6 µM. For the same molecule, the LD90 [9] was > 100 µg/ml and > 46.3 µM, the LD99 [9] was > 200 µg/ml and > 92.6 µM and the LD90 [10] was 39.35 µg/ml and 17.8 µM. For the same molecule, the LD99 [10] was 39.43 µg/ml and 18.3 µM, the LD90 [11] was > 100 µg/ml and > 46.3 µM and the LD99 [11] was > 200 µg/ml and > 92.6 µM. For the same molecule, the LD90 [12] was 126.205 µg/ml and 58.4 µM, the LD99 [12] was 127,26 µg/ml and 59 µM and the LD90 [13] was > 100 µg/ml and > 46.3 µM. The LD99 [13] was > 200 µg/ml and > 92.6 µM, the LD90 [14] was 142.80 µg/ml and 66.1 µM and the LD99 [14] was 202.98 µg/ml and 94 µM. For the same molecule, the LD90 [15] was 123.77 µg/ml and 57.3 µM, the LD99 [15] was 131.55 µg/ml and 61 µM and the LD90 [16] was 152.02 µg/ml and 70 µM.
